Reference: patent publication US7071166B2, “Skin wound healing promoters” (Santen Pharmacetical Co., Ltd., priority 2000, dated 2006)
Where a SMILES comes first, the peptide text is derived from it.

Legend:
[1] = test system: ear tissue pieces (epidermal cell layer); assay: Action on epidermal extension (cultured rat ear tissue pieces); format: cell-based, rats (Spraque-Dawley); settings: for Extension length of epidermis: TCM 199 medium, cultured 24 hours, substance P or FGLM 20 μM, IGF-I 10 ng/ml, average of 12 samples; for Epidermal extension compared with control (in words): each drug used solely
Method: Excessive pentobarbital was administered to rats (Spraque-Dawley), and then ear tissue pieces of about 2×4 mm were prepared. Into a 60 mm Petri dish was put 18 ml of each TCM 199 culture medium containing each of test drugs in Table 1 [substance P, FGLM (SEQ ID NO: 2), IGF-I, substance P+IGF-I and FGLM (SEQ ID NO: 2)+IGF-I], and […] were added to each Petri dish (12 samples: three sections per group). The tissue pieces were cultured in a CO2 incubator (37° C.·5% CO2) for 24 hours, the tissue pieces were fixed with ethanol-acetic acid (volume ratio 95:5) to prepare three tissue sections per tissue piece according to the conventional method. The tissue sections were stained with hematoxylin-eosin, and then length of a epidermal cell layer having extended cut surfaces was measured. The tissue pieces were cultured under the same condition as mentioned above using a culture medium containing no test drug to prepare controls. The values in the table are the average of 12 samples.

[2] = test system: full-thickness wounds on back skin of diabetes rats (DM Rat); assay: Action on skin wound healing, streptozotocin diabetes rats; format: in vivo, rats (Wistar); settings: ointment once a day, substance P 2.5 mg/ml, IGF-I 1 μg/ml, average of five
Method: (§1) Streptozotocin (70 mg/kg BW) dissolved in a citric acid buffer was injected intravenously into tails of rats (Wistar) under diethyl ether inhalation anesthesia to prepare diabetes rats (DM Rat) (five rats per group). An equal amount of the citric acid buffer alone was injected intravenously into rats (Wistar) to prepare non-diabetes rats (non DM Rat) (five rats per group). Four weeks after the intravenous injection, the back of all the rats was shaved with hair clippers under diethyl ether inhalation anesthesia, and hair was removed with cream for depilation. After 24 hours, five full-thickness (i.e. epidermis and dermis) wounds were made on back skin in equal intervals with a trepan for skin biopsy having a diameter of 5 mm. Confirming hemostasis, each ointment in Tables 2 and 3 was applied on the wound once a day. Just before applying the ointment once a day, the back wounds were photographed, and their areas were measured. […] The values in these tables are the average of five samples.

[3] = test system: full-thickness wounds on back skin of non-diabetes rats (non DM Rat); assay: Action on skin wound healing, non-diabetes rats; format: in vivo, rats (Wistar); settings: ointment once a day, substance P 2.5 mg/ml, IGF-I 1 μg/ml, average of five
Method: as §1

Q: For `CSCC[C@H](NC(=O)[C@H](CC(C)C)NC(=O)CNC(=O)[C@@H](N)Cc1ccccc1)C(N)=O` [FGLM, Phe-Gly-Leu-Met-NH2] (H-FGLM-NH2), which “Extension length of epidermis” value [1] is on record?
A: 55.37 μm

Q: What about the “Epidermal extension compared with control (in words)” value [1] of the same compound?
A: almost as long as that in the case where the control is used

Q: How did the “Skin wound area of diabetes rat” value ([2]; 1st day) turn out when IGF-I: insulin-like growth factor-I was run?
A: 100%

Q: What about the “Skin wound area of diabetes rat” value ([2]; After 1 day) of the same compound?
A: 89%

Q: What about the “Skin wound area of diabetes rat” value ([2]; After 4 days) of the same compound?
A: 64%

Q: And the “Skin wound area of diabetes rat” value ([2]; After 7 days)?
A: 52%

Q: And the “Skin wound area of diabetes rat” value ([2]; After 10 days)?
A: 27%

Q: What about the “Skin wound area of non-diabetes rat” value ([3]; 1st day) of the same compound?
A: 100%

Q: And the “Skin wound area of non-diabetes rat” value ([3]; After 2 days)?
A: 81%

Q: And the “Skin wound area of non-diabetes rat” value ([3]; After 4 days)?
A: 66%

Q: What about the “Skin wound area of non-diabetes rat” value ([3]; After 6 days) of the same compound?
A: 43%

Q: What about the “Extension length of epidermis” value [1] of the same compound?
A: 50.68 μm

Q: What about the “Epidermal extension compared with control (in words)” value [1] of the same compound?
A: almost as long as that in the case where the control is used

Q: For `CSCC[C@H](NC(=O)[C@H](CC(C)C)NC(=O)CNC(=O)[C@H](Cc1ccccc1)NC(=O)[C@H](Cc1ccccc1)NC(=O)[C@H](CCC(N)=O)NC(=O)[C@H](CCC(N)=O)NC(=O)[C@@H]1CCCN1C(=O)[C@H](CCCCN)NC(=O)[C@@H]1CCCN1C(=O)[C@@H](N)CCCNC(=N)N)C(N)=O` [Substance P, Arg-Pro-Lys-Pro-Gln-Gln-Phe-Phe-Gly-Leu-Met-NH2], which “Skin wound area of diabetes rat” value ([2]; 1st day) is on record?
A: 100%

Q: And the “Skin wound area of diabetes rat” value ([2]; After 1 day)?
A: 90%

Q: And the “Skin wound area of diabetes rat” value ([2]; After 4 days)?
A: 77%

Q: What about the “Skin wound area of diabetes rat” value ([2]; After 7 days) of the same compound?
A: 68%

Q: What about the “Skin wound area of diabetes rat” value ([2]; After 10 days) of the same compound?
A: 44%

Q: What about the “Skin wound area of non-diabetes rat” value ([3]; 1st day) of the same compound?
A: 100%

Q: And the “Skin wound area of non-diabetes rat” value ([3]; After 2 days)?
A: 88%

Q: And the “Skin wound area of non-diabetes rat” value ([3]; After 4 days)?
A: 74%

Q: And the “Skin wound area of non-diabetes rat” value ([3]; After 6 days)?
A: 59%

Q: What about the “Extension length of epidermis” value [1] of the same compound?
A: 72.57 μm

Q: What about the “Epidermal extension compared with control (in words)” value [1] of the same compound?
A: almost as long as that in the case where the control is used
